ChEMBL document CHEMBL1201862, “PubChem BioAssay data set” (2004)
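Where inhibition never reached the appropriate level, the endpoint shown equals the highest concentration tested. Otherwise, values were interpolated linearly from a five-concentration, 48-hour dose response in 96-well plates. Abbreviation: GI50, concentration required for 50% inhibition of growth.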 The source made the active and inactive calls. Rule as the data show it: active = GI50 up to about 1.1 µM and inactive = higher.

What was measured:
Assay in all cases: inhibition of tumour cell growth, NCI panel, 48 h
HL-60 = tested on: HL-60
UO-31 = tested on: UO-31
OVCAR-4 = tested on: OVCAR-4
NCI/ADR-RES = tested on: NCI/ADR-RES
HCT-116 = tested on: HCT-116
HT-29 = tested on: HT-29
SF-295 = tested on: SF-295
UACC-62 = tested on: UACC-62
SNB-19 = tested on: SNB-19
OVCAR-3 = tested on: OVCAR-3
ACHN = tested on: ACHN
HCC 2998 = tested on: HCC 2998
MDA-MB-231 = tested on: MDA-MB-231
LOX IMVI = tested on: LOX IMVI
CAKI-1 = tested on: CAKI-1
SF-539 = tested on: SF-539
SK-MEL-5 = tested on: SK-MEL-5
SN12C = tested on: SN12C
CCRF-CEM = tested on: CCRF-CEM
SK-OV-3 = tested on: SK-OV-3
SW-620 = tested on: SW-620
A549 = tested on: A549
TK-10 = tested on: TK-10
HOP-62 = tested on: HOP-62
BT-549 = tested on: BT-549
M14 = tested on: M14
PC-3 = tested on: PC-3
SR = tested on: SR
NCI-H23 = tested on: NCI-H23
RPMI-8226 = tested on: RPMI-8226
NCI-H226 = tested on: NCI-H226
MDA-N = tested on: MDA-N
SNB-75 = tested on: SNB-75
RXF 393 = tested on: RXF 393
COLO 205 = tested on: COLO 205
MDA-MB-435 = tested on: MDA-MB-435
SF-268 = tested on: SF-268
OVCAR-5 = tested on: OVCAR-5
EKVX = tested on: EKVX
786-0 = tested on: 786-0
UACC-257 = tested on: UACC-257
DU-145 = tested on: DU-145
Hs-578T = tested on: Hs-578T
KM12 = tested on: KM12
HCT-15 = tested on: HCT-15
MCF7 = tested on: MCF7
MOLT-4 = tested on: MOLT-4
IGROV-1 = tested on: IGROV-1
A498 = tested on: A498
U-251 = tested on: U-251
SK-MEL-28 = tested on: SK-MEL-28
K562 = tested on: K562
Malme-3M = tested on: Malme-3M
OVCAR-8 = tested on: OVCAR-8
NCI-H460 = tested on: NCI-H460

Measured: GI50

COC(=O)C1=C(C(=O)OC)SC(=C2c3ccsc3-c3sccc32)S1
inactive: HL-60 24 µM | UO-31 99.1 µM | OVCAR-4 > 10 µM | NCI/ADR-RES 62.8 µM | HCT-116 25.9 µM | HT-29 22.8 µM | SF-295 17.6 µM | UACC-62 26.6 µM | SNB-19 67.6 µM | OVCAR-3 31 µM | ACHN 74.8 µM | HCC 2998 40.6 µM | MDA-MB-231 > 100 µM | LOX IMVI > 100 µM | CAKI-1 > 100 µM | SF-539 20.7 µM | SK-MEL-5 31.9 µM | SN12C 65.8 µM | CCRF-CEM 38.1 µM | SK-OV-3 12.3 µM | SW-620 69 µM | A549 37.2 µM | TK-10 24.5 µM | HOP-62 19.7 µM | BT-549 29.4 µM | M14 36.6 µM | PC-3 47 µM | SR 34 µM | NCI-H23 16.1 µM | RPMI-8226 76.9 µM | NCI-H226 27.4 µM | MDA-N 70.3 µM | SNB-75 15.9 µM | RXF 393 18.3 µM | COLO 205 47.5 µM | MDA-MB-435 > 100 µM | SF-268 19.9 µM | OVCAR-5 > 100 µM | EKVX 27.3 µM | 786-0 21.4 µM | UACC-257 64.4 µM | DU-145 > 100 µM | Hs-578T 14.9 µM | KM12 40.3 µM | MCF7 27.4 µM | MOLT-4 39.4 µM | IGROV-1 40.6 µM | A498 24.5 µM | U-251 28.3 µM | SK-MEL-28 24.3 µM | K562 36.2 µM | Malme-3M 43.2 µM | OVCAR-8 29.1 µM | NCI-H460 > 100 µM
53.7 µM: HCT-15
